We go through 14 compounds from patent US20250163048A1 (Tango Therapeutics, Inc., priority 2022, published 2025).

Read-outs that look alike come from different tables or passages of the source.

Assay [1] relates to HAP1 MTAP-intact cell line. The assay is described as follows: SDMA in-cell western assay, HAP1 MTAP-intact. The settings on record: Homo sapiens.
Assay [2] relates to HAP1 MTAP-deleted cell line. Nature of the assay: SDMA in-cell western assay, HAP1 MTAP-deleted. The settings on record: for IC50 / IC90: Homo sapiens; for IC50: HAP1, read-out: Hap1 MTAP deleted IC50, SDMA in-cell western assay, HAP1 MTAP-deleted cell line; for IC90: HAP1, read-out: Hap1 MTAP deleted IC90, SDMA in-cell western assay, HAP1 MTAP-deleted cell line; for Hap1 MTAP intact/deleted ratio: IC50 ratio between HAP1 MTAP-intact and HAP1 MTAP-deleted cell line, SDMA in-cell western assay.

The test system of another assay is MTAP-deleted cell line. Nature of the assay: viability assay for the MTAP-deleted cell line. Format: cell-based. The settings on record: Homo sapiens, HAP1, viability assay.
[3] abbreviates: HAP1, read-out: Hap1 MTAP intact IC50, SDMA in-cell western assay, HAP1 MTAP-intact cell line.

In the case of `C[C@H]1CC[C@H](C2(C(F)(F)F)CC2)N(C(=O)C(=O)Nc2cnc(N)c3cn[nH]c23)C1` (racemic) [Compound 226, N-(4-Amino-1H-pyrazolo[4,3-c]pyridin-7-yl)-2-oxo-2-[rac-(2R,5S)-5-methyl-2-[1-(trifluoromethyl)cyclopropyl]-1-piperidyl]acetamide], the IC50 in assay [1] (setting [3]) is above 50 nM; in assay [2], 5 to 50 nM; with MTAP-deleted cell line, 100 to 1000 nM. Moreover, the IC90 in assay [2] was above 125 nM. Moreover, in assay [2], the “Hap1 MTAP intact/deleted ratio” value is listed as “B (“B” indicates an IC50 ratio greater than or equal to 15 fold but lower than 30 fold)”.

As to `CC[C@@H]1CC[C@H](CC)N(C(=O)C(=O)Nc2cnc(N)c3cn[nH]c23)C1` (racemic) [Compound 227], the IC50 in assay [1] (setting [3]) was 5 to 50 nM; in assay [2] it was below 5 nM; in the assay with MTAP-deleted cell line, below 100 nM. Also, in assay [2], the IC90 was below 75 nM. Moreover, the “Hap1 MTAP intact/deleted ratio” value in assay [2] is reported as “B (“B” indicates an IC50 ratio greater than or equal to 15 fold but lower than 30 fold)”.

For the compound `C[C@H]1CC[C@H](C2(C)CC2)N(C(=O)C(=O)Nc2cnc(N)c3cn[nH]c23)C1` (racemic) [Compound 228, N-(4-Amino-1H-pyrazolo[4,3-c]pyridin-7-yl)-2-oxo-2-[rac-(2R,5S)-5-methyl-2-(1-methylcyclopropyl)-1-piperidyl]acetamide], the IC50 in assay [1] (setting [3]) was above 50 nM. Moreover, in assay [2], the IC50 was below 5 nM, the IC90 was below 75 nM and the “Hap1 MTAP intact/deleted ratio” value is “A (“A” indicates an IC50 ratio greater than or equal to 30 fold)”. This compound also had an IC50 in the assay on MTAP-deleted cell line below 100 nM.

For `CC(C)n1cc2cc([C@H]3CC[C@H](C)CN3C(=O)C(=O)Nc3cnc(N)c4cn[nH]c34)ccc2n1` (racemic) [Compound 231, N-(4-Amino-1H-pyrazolo[4,3-c]pyridin-7-yl)-2-oxo-2-[rac-(2R,5S)-2-(2-isopropylindazol-5-yl)-5-methyl-1-piperidyl]acetamide], the IC50 in assay [1] (setting [3]) is 5 to 50 nM. In assay [2], the IC50 is below 5 nM, the IC90 was below 75 nM and the “Hap1 MTAP intact/deleted ratio” value is on record as “A (“A” indicates an IC50 ratio greater than or equal to 30 fold)”. Further, the IC50 with MTAP-deleted cell line was below 100 nM.

For the compound `CC[C@@H]1CC[C@@H](CC)N(C(=O)C(=O)Nc2cnc(N)c3cn[nH]c23)C1` (racemic) [Compound 233], the values for the IC50 (in assay [1] (setting [3]); in assay [2]; in the assay with MTAP-deleted cell line) were above 50 nM, below 5 nM and below 100 nM, respectively. Besides, the IC90 in assay [2] is below 75 nM. Besides, in assay [2], the “Hap1 MTAP intact/deleted ratio” value was “B (“B” indicates an IC50 ratio greater than or equal to 15 fold but lower than 30 fold)”.

Take `C[C@H]1CC[C@H](c2ccc3c(c2)OCC3)N(C(=O)C(=O)Nc2cnc(N)c3cn[nH]c23)C1` (racemic) [Compound 238]: the IC50 in assay [1] (setting [3]) lay in the range of 5 to 50 nM. In addition, in assay [2], the IC50 was below 5 nM, the IC90 is below 75 nM and the “Hap1 MTAP intact/deleted ratio” value is on record as “A (“A” indicates an IC50 ratio greater than or equal to 30 fold)”. The compound further showed an IC50 in the assay with MTAP-deleted cell line below 100 nM.

As for `Cc1cc([C@H]2CC[C@H](C)CN2C(=O)C(=O)Nc2cnc(N)c3cn[nH]c23)cnc1C` (racemic) [Compound 241, N-(4-Amino-1H-pyrazolo[4,3-c]pyridin-7-yl)-2-oxo-2-[rac-(2R,5S)-2-(5,6-dimethyl-3-pyridyl)-5-methyl-1-piperidyl]acetamide], the IC50 in assay [1] (setting [3]) was above 50 nM. Further, in assay [2], the IC50 was below 5 nM, the IC90 is below 75 nM and the “Hap1 MTAP intact/deleted ratio” value is “A (“A” indicates an IC50 ratio greater than or equal to 30 fold)”. Moreover, the IC50 with MTAP-deleted cell line is below 100 nM.

Take `CC(C)[C@@H]1CC[C@@H](C)CN1C(=O)C(=O)Nc1cnc(N)c2cn[nH]c12` (racemic) [Compound 244, N-(4-amino-1H-pyrazolo[4,3-c]pyridin-7-yl)-2-(rac-(2S,5R)-2-isopropyl-5-methylpiperidin-1-yl)-2-oxoacetamide]: the IC50 in assay [1] (HAP1, read-out: Hap1 MTAP intact IC50) was above 50 nM; in assay [2], below 5 nM; in the assay on MTAP-deleted cell line, below 100 nM. Also, the IC90 in assay [2] was below 75 nM.

With `Nc1ncc(NC(=O)C(=O)N2[C@@H](c3ccccc3)CCC[C@H]2C(F)(F)F)c2[nH]ncc12` (racemic) [Compound 245, N-(4-Amino-2H-pyrazolo[4,3-c]pyridin-7-yl)-2-oxo-2-[rac-(2R,6S)-2-phenyl-6-(trifluoromethyl)-1-piperidyl]acetamide], the IC50 in assay [1] (setting [3]) is above 50 nM. In addition, in assay [2], the IC50 is below 5 nM, the IC90 was below 75 nM and the “Hap1 MTAP intact/deleted ratio” value is “A (“A” indicates an IC50 ratio greater than or equal to 30 fold)”. In the assay with MTAP-deleted cell line, the IC50 is below 100 nM.

`COc1ncc([C@H]2CC[C@H](C)CN2C(=O)C(=O)Nc2cnc(N)c3cn[nH]c23)cc1C` (racemic) [Compound 246, N-(4-Amino-1H-pyrazolo[4,3-c]pyridin-7-yl)-2-oxo-2-[rac-(2R,5S)-2-(6-methoxy-5-methyl-3-pyridyl)-5-methyl-1-piperidyl]acetamide]: the IC50 in assay [1] (setting [3]) was in the range of 5 to 50 nM. Besides, in assay [2], the IC50 is below 5 nM, the IC90 is below 75 nM and the “Hap1 MTAP intact/deleted ratio” value was “B (“B” indicates an IC50 ratio greater than or equal to 15 fold but lower than 30 fold)”. This compound also displayed an IC50 in the assay on MTAP-deleted cell line below 100 nM.

Consider `C[C@H]1CC[C@H](c2ccnc(OC3CC3)c2)N(C(=O)C(=O)Nc2cnc(N)c3cn[nH]c23)C1` (racemic) [Compound 247, N-(4-Amino-2H-pyrazolo[4,3-c]pyridin-7-yl)-2-oxo-2-[rac-(2R,5S)-2-[2-(cyclopropoxy)-4-pyridyl]-5-methyl-1-piperidyl]acetamide], for which the IC50 in assay [1] (setting [3]) was 5 to 50 nM. For the same compound, in assay [2], the 50% inhibitory concentration (IC50) was below 5 nM, the IC90 is below 75 nM and the “Hap1 MTAP intact/deleted ratio” value was “B (“B” indicates an IC50 ratio greater than or equal to 15 fold but lower than 30 fold)”. The compound also yielded an IC50 with MTAP-deleted cell line below 100 nM.

In the case of `CCn1cc2ccc([C@H]3CC[C@H](C)CN3C(=O)C(=O)Nc3cnc(N)c4cn[nH]c34)cc2n1` (racemic) [Compound 253, N-(4-Amino-1H-pyrazolo[4,3-c]pyridin-7-yl)-2-oxo-2-[rac-(2R,5S)-2-(2-ethylindazol-6-yl)-5-methyl-1-piperidyl]acetamide], the IC50 in assay [1] (setting [3]) was below 5 nM; in assay [2], below 5 nM; in the assay on MTAP-deleted cell line, below 100 nM. Moreover, in assay [2], the IC90 is below 75 nM. The “Hap1 MTAP intact/deleted ratio” value in assay [2] was “C (“C” indicates an IC50 ratio of less than 15 fold)”.

Take `C[C@H]1CC[C@H](C(C)(C)C)N(C(=O)C(=O)Nc2cnc(N)c3cn[nH]c23)C1` (racemic) [Compound 254, N-(4-Amino-1H-pyrazolo[4,3-c]pyridin-7-yl)-2-oxo-2-[rac-(2R,5S)-2-tert-butyl-5-methyl-1-piperidyl]acetamide]: in assay [1] (setting [3]), the IC50 is above 50 nM. For the same compound, in assay [2], the IC50 was in the range of 5 to 50 nM, the IC90 is above 125 nM and the “Hap1 MTAP intact/deleted ratio” value is listed as “B (“B” indicates an IC50 ratio greater than or equal to 15 fold but lower than 30 fold)”. Further, the half-maximal inhibitory concentration (IC50) with MTAP-deleted cell line was in the range of 100 to 1000 nM.

For `C[C@H]1CC[C@H](c2cccc3c2OCC3)N(C(=O)C(=O)Nc2cnc(N)c3cn[nH]c23)C1` (racemic) [Compound 255, N-(4-Amino-1H-pyrazolo[4,3-c]pyridin-7-yl)-2-oxo-2-[rac-(2R,5S)-2-(2,3-dihydrobenzofuran-7-yl)-5-methyl-1-piperidyl]acetamide], the IC50 in assay [1] (setting [3]) is 5 to 50 nM; in assay [2], below 5 nM; in the assay on MTAP-deleted cell line it was below 100 nM. The IC90 in assay [2] was below 75 nM. Moreover, in assay [2], the “Hap1 MTAP intact/deleted ratio” value is “B (“B” indicates an IC50 ratio greater than or equal to 15 fold but lower than 30 fold)”.
